From patent US12414952B2 (Merck Sharp & Dohme LLC, priority 2018, dated 2025)

Key:
[1] = target: human A2b adenosine receptor (Homo sapiens (Human), UniProt P29275); test: A2b binding affinity, radioligand filtration binding assay; details: tritiated proprietary A2b antagonist, HEK293 membranes
Procedure: Measurement of A2b Binding Affinity
The reported affinity of the compounds of the invention for the human A2b adenosine receptor was determined experimentally using a radioligand filtration binding assay. This assay measures the amount of binding of a tritiated proprietary A2b receptor antagonist, in the presence and absence of a compound of the invention, to membranes made from HEK293 cells recombinantly expressing the human A2b adenosine receptor (Perkin Elmer, Cat. No. ES-013-C).
The filter plate was incubated for at least 1 h at 55° C. and allowed to dry. The bottom of the filter plate was then sealed with backing tape. […] The plates were then incubated for at least 20 min, and then the amount of radioactivity remaining in each well was determined using a TopCount® (Perkin Elmer) scintillation counter. After normalization to total and non-specific binding, the percent effect at each compound concentration was calculated. The plot of percent effect versus the log of compound concentration was analyzed electronically using a 4-parameter logistic fit based on the Levenberg-Marquardt algorithm to generate IC50 values.

[2] = target: human A2a adenosine receptor (Homo sapiens (Human), UniProt P29274); test: A2a binding affinity using radioligand binding, Method (A); details: Method (A): [3H]SCH58261 filtration binding
Chain of human A2a adenosine receptor (P29274 whole entry): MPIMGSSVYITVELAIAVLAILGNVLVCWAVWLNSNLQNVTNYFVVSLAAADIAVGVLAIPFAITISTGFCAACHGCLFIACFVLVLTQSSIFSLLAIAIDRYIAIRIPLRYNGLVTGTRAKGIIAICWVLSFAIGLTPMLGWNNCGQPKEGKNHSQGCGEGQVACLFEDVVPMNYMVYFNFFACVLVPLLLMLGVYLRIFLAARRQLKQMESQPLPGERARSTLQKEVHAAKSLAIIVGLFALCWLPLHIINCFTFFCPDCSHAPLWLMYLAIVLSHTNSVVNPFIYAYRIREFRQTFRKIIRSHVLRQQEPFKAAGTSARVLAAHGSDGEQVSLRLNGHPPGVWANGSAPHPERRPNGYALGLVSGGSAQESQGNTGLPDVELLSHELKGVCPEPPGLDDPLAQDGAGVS
Excerpt: The A2a receptor affinity binding assay measured the amount of binding of a tritiated ligand with high affinity for the A2a adenosine receptor to membranes made from HEK293 or CHO cells recombinantly expressing the human A2a adenosine receptor, in the presence of varying concentrations of a compound of the invention. The data were generated using either filtration binding or a homogenous scintillation proximity assay (SPA).
Method (A): Measurement of A2a Binding Affinity Using Radioligand Binding
148 μL (5 μg/mL) membranes (Perkin Elmer, Cat. No. RBHA2aM400UA) and 2 μL compounds of the invention to be tested (test compound) were transferred to individual wells of a 96-well polypropylene assay plate and incubated for 15 to 30 min at room temperature. [^3H] SCH58261 ((7-(2-phenylethyl)-5-amino-2-(2-furyl)-pyrazolo-[4,3-e]-1,2,4-triazolo[1,5-c]pyrimidine)) was diluted in assay buffer (50 mM Tris pH 7.4, 10 mM MgCl2, 0.005% Tween20) to a concentration of 4 nM and 50 μL transferred to each well of the assay plate. […] The assay plate was incubated at room temperature for 60 min with agitation. […] Filtering was achieved by aspirating the contents of the assay plate for 5 sec, then washing and aspirating the contents three times with ice-cooled wash buffer (50 mM Tris-HCl pH 7.4, 150 mM NaCl) and allowing the vacuum manifold to dry the plate for […]. The filter plate was incubated for at least 1 h at 55° C. and allowed to dry. The bottom of the filter plate was sealed with backing tape. […] The plate was incubated for at least 20 min, and then the amount of radioactivity remaining in each well was determined using a TopCount® (Perkin Elmer) scintillation counter. After normalization to total and non-specific binding, the percent effect at each compound concentration was calculated. The plot of percent effect versus the log of compound concentration was analyzed electronically using a 4-parameter logistic fit based on the Levenberg-Marquardt algorithm to generate IC50 values.

Chain of human A2b adenosine receptor (P29275 whole entry): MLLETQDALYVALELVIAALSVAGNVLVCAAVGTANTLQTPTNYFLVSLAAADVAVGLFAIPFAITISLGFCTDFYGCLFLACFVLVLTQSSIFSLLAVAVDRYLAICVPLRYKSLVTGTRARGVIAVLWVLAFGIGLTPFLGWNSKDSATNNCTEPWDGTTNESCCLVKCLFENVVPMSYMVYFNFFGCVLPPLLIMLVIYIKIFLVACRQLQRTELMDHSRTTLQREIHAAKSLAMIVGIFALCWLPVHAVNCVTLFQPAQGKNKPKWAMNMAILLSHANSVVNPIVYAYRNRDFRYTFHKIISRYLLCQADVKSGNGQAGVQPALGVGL

| SMILES | IC50 [1] | IC50 [2] |
| --- | --- | --- |
| Cc1c(-c2cc(F)ccc2F)nc(N)c2nc(Cc3ncccc3F)nn12 [Example 4.8] | 9.3 nM | 18.7 nM |
| Cc1c(-c2ncco2)nc(N)c2nc(Cc3cccc4c3ncn4CC(C)(C)O)nn12 [Example 4.9] | 1.2 nM | 0.2 nM |
| Cc1c(-c2ncco2)nc(N)c2nc(Cc3cccc4c3ncn4CC(F)F)nn12 [Example 4.10] | 6.5 nM | 0.7 nM |
| Cc1c(-c2ncco2)nc(N)c2nc(Cc3ccc(C(C)(C)O)cn3)nn12 [Example 4.11] | 66.5 nM | 48.2 nM |
| Cc1c(-c2ncco2)nc(N)n2nc(Cc3ccc([C@H]4C[C@@](C)(O)C4)cc3)nc12 [Example 5.2, (1s,3s)-3-(4-((5-amino-8-methyl-7-(oxazol-2-yl)-[1,2,4]triazolo[1,5-c]pyrimidin-2-yl)methyl)phenyl)-1-methylcyclobutanol] | 1.6 nM | 2.5 nM |
| Cc1c(-c2ncco2)nc(N)n2nc(Cc3ccc([C@H]4C[C@](C)(O)C4)cc3)nc12 [Example 5.3, (1r,3r)-3-(4-((5-amino-8-methyl-7-(oxazol-2-yl)-[1,2,4]triazolo[1,5-c]pyrimidin-2-yl)methyl)phenyl)-1-methylcyclobutanol] | 3.5 nM | 12.1 nM |
| Cc1c(-c2ncco2)nc(N)n2nc(Cc3ccc(C4(O)CCC4)cc3)nc12 [Example 6.3, 1-(4-((5-amino-8-methyl-7-(oxazol-2-yl)-[1,2,4]triazolo[1,5-c]pyrimidin-2-yl)methyl)phenyl)cyclobutanol] | 10.7 nM | 17.1 nM |
| COC1(c2ccc(Cc3nc4c(C)c(-c5ncco5)nc(N)n4n3)cc2)CCC1 [Example 6.4, 2-(4-(1-methoxycyclobutyl)benzyl)-8-methyl-7-(oxazol-2-yl)-[1,2,4]triazolo[1,5-c]pyrimidin-5-amine] | 5.7 nM | 4.9 nM |
| Cc1c(-c2ncco2)nc(N)n2nc(Cc3ccc(C(C)(C)O)cc3)nc12 [Example 6.5, 2-(4-((5-amino-8-methyl-7-(oxazol-2-yl)-[1,2,4]triazolo[1,5-c]pyrimidin-2-yl)methyl)phenyl)propan-2-ol] | 5 nM | 38.7 nM |
| Cc1c(-c2ncco2)nc(N)n2nc(Cc3cccc(C(C)(C)O)c3)nc12 [Example 6.6, 2-(3-((5-amino-8-methyl-7-(oxazol-2-yl)-[1,2,4]triazolo[1,5-c]pyrimidin-2-yl)methyl)phenyl)propan-2-ol] | 243 nM | 1.9 nM |
| Cc1c(-c2ncco2)nc(N)c2nc(Cc3ccc(C(C)(C)O)cc3)nn12 [Example 6.7, 2-(4-((8-amino-5-methyl-6-(oxazol-2-yl)-[1,2,4]triazolo[1,5-a]pyrazin-2-yl)methyl)phenyl)propan-2-ol] | 30.1 nM | 15.7 nM |
| Cc1c(-c2ncco2)nc(N)c2nc(Cc3cccc(C(C)(C)O)c3)nn12 [Example 6.8, 2-(3-((8-amino-5-methyl-6-(oxazol-2-yl)-[1,2,4]triazolo[1,5-a]pyrazin-2-yl)methyl)phenyl)propan-2-ol] | 330 nM | 1.2 nM |
| Cc1c(-c2ncco2)nc(N)n2nc(Cc3ccn(C)n3)nc12 [Example 7.6, 8-methyl-2-((1-methyl-1H-pyrazol-3-yl)methyl)-7-(oxazol-2-yl)-[1,2,4]triazolo[1,5-c]pyrimidin-5-amine] | 2.6 nM | 0.5 nM |

Other lines, results leading:

| IC50 [1] | IC50 [2] | SMILES |
| --- | --- | --- |
| 29.9 nM | 1.3 nM | Cc1cccnc1Cc1nc2c(N)nc(-c3ncco3)c(C)n2n1 [Example 8.3] |
| 18.6 nM | 1.3 nM | Cc1c(-c2ncco2)nc(N)c2nc(Cc3ncccc3F)nn12 [Example 8.4] |
| 48.4 nM | 4.5 nM | Cc1c(-c2ncco2)nc(N)n2nc(CNCc3ccc(C(F)(F)F)cc3)nc12 [Example 10.2, 8-methyl-7-(oxazol-2-yl)-2-(((4-(trifluoromethyl)benzyl)amino)methyl)-[1,2,4]triazolo[1,5-c]pyrimidin-5-amine] |
| 14.5 nM | 0.4 nM | Cc1c(-c2ncco2)nc(N)n2nc(CN3CCc4cccnc43)nc12 [Example 10.3, 2-((2,3-dihydro-1H-pyrrolo[2,3-b]pyridin-1-yl)methyl)-8-methyl-7-(oxazol-2-yl)-[1,2,4]triazolo[1,5-c]pyrimidin-5-amine] |
| 330 nM | 156 nM | Cc1c(-c2ncco2)nc(N)n2nc(CNCc3ccc(C(F)(F)F)cn3)nc12 [Example 10.4, 8-methyl-7-(oxazol-2-yl)-2-((((5-(trifluoromethyl)pyridin-2-yl)methyl)amino)methyl)-[1,2,4]triazolo[1,5-c]pyrimidin-5-amine] |
| 157 nM | 163 nM | Cc1c(-c2cccc(F)c2)nc(N)n2nc(CNCc3ccc(C(F)(F)F)cc3)nc12 [Example 10.5, 7-(3-fluorophenyl)-8-methyl-2-(((4-(trifluoromethyl)benzyl)amino)methyl)-[1,2,4]triazolo[1,5-c]pyrimidin-5-amine] |
| 62.6 nM | 1.1 nM | Cc1c(-c2ncco2)nc(N)n2nc(CNCc3ccc(C(C)(C)O)cc3)nc12 [Example 11.2, 2-(4-((((5-amino-8-methyl-7-(oxazol-2-yl)-[1,2,4]triazolo[1,5-c]pyrimidin-2-yl)methyl)amino)methyl)phenyl)propan-2-ol] |
| 40.6 nM | 15.5 nM | Cc1c(-c2ncco2)nc(N)n2nc(CNCc3ccc(C(C)(C)O)cn3)nc12 [Example 11.3, 2-(6-((((5-amino-8-methyl-7-(oxazol-2-yl)-[1,2,4]triazolo[1,5-c]pyrimidin-2-yl)methyl)amino)methyl)pyridin-3-yl)propan-2-ol] |
| 744 nM | 5.4 nM | Cc1c(-c2ncco2)nc(N)n2nc(CNCc3ccc(C(C)(C)O)nc3)nc12 [Example 11.4, 2-(5-((((5-amino-8-methyl-7-(oxazol-2-yl)-[1,2,4]triazolo[1,5-c]pyrimidin-2-yl)methyl)amino)methyl)pyridin-2-yl)propan-2-ol] |
| 1320 nM | 15.2 nM | Cc1c(-c2ncco2)nc(N)n2nc(CNCc3cnn(CC(C)(C)O)c3)nc12 [Example 11.5, 1-(4-((((5-amino-8-methyl-7-(oxazol-2-yl)-[1,2,4]triazolo[1,5-c]pyrimidin-2-yl)methyl)amino)methyl)-1H-pyrazol-1-yl)-2-methylpropan-2-ol] |
| 1990 nM | 0.7 nM | Cc1c(-c2ncco2)nc(N)n2nc(CN(Cc3ccc(C(F)(F)F)cc3)CC(F)F)nc12 [Example 12.3] |
| 489 nM | 0.4 nM | Cc1c(-c2ncco2)nc(N)n2nc(CN(Cc3ccc(C(C)(C)O)cc3)CC(F)F)nc12 [Example 13.1, 2-(4-((((5-amino-8-methyl-7-(oxazol-2-yl)-[1,2,4]triazolo[1,5-c]pyrimidin-2-yl)methyl)(2,2-difluoroethyl)amino)methyl)phenyl)propan-2-ol] |
| 151 nM | 7.3 nM | Cc1c(-c2ncco2)nc(N)n2nc(CCS(=O)(=O)C3CC3)nc12 [Example 15.3, 2-(2-(cyclopropylsulfonyl)ethyl)-8-methyl-7-(oxazol-2-yl)-[1,2,4]triazolo[1,5-c]pyrimidin-5-amine] |
| 453 nM | 19.3 nM | Cc1c(-c2cccc(F)c2)nc(N)n2nc(CCS(=O)(=O)C3CC3)nc12 [Example 16.2, 2-(2-(cyclopropylsulfonyl)ethyl)-7-(3-fluorophenyl)-8-methyl-[1,2,4]triazolo[1,5-c]pyrimidin-5-amine] |
